According to US8633251B2, “Derivatives of aminoalkanols, method of obtaining of aminoalkanols and their use” (Uniwersytet Jagiellonski, priority 2008, dated 2014):

Tests used:
Assay type in all cases: in vivo
[1] = tested on: neurotoxicity (rotarod); assay: Neurotoxicity test (TOX), rotarod, mice
Description: (§1) In order to define anticonvulsant activity, screening tests were performed, using animal models of seizures. […] Each substance (after dissolving in methylcellulose) was normally tested in doses 30, 100, and 300 mg/kg body weight (b.w.) (mice) or in 30 and 50 mg/kg b.w. (rats) in two possible routes of administration: intraperitoneal (i.p.) or oral (p.o.). Appropriate tests were performed 0.5 and 4 h after administration of the compound. […] (mice) the tests were also performed in doses 10 and 3 mg/kg b.w.
It is performed with use of rotarod test. The animal is placed on a plastic rod (1 inch in diameter), rotating 6 rpm. The rod is placed on a level discouraging the animal to jump off. […] Neurotoxicity is stated if the animal cannot stay on the rod for 1 min. in any of 3 trials. Normally the test is performed in dose 30 mg/kg b.w. in 4 mice (0.5 h) and in 2 mice (4 h), in the dose 100 mg/kg b.w. in 8 mice (0.5 h) and in 4 mice (4 h) and in the dose 300 mg/kg b.w. in 4 mice (0.5 h) and 2 mice (4 h).

[2] = tested on: maximal electroshock seizures; assay: Maximum Electroshock Seizure (MES) test, mice; conditions: mice
Description: as §1
Maximum Electroshock Seizure (MES) test is an electric test, verifying activity towards generalized tonic-clonic seizures (grand mal epilepsy). […] Its procedure consists in administration to an animal a mentioned dose, and after 0.5 or 4 h attaching corneal electrodes (after anesthetic eye-drops: 0.5% tetracaine hydrochloride in 0.9% NaCl) and turning on electric current (60 Hz, 0.2 s, 50 mA (mice) or 150 mA (rats)). […] Normally, in the dose 30 mg/kg b.w. the test is done in 1 mouse after 0.5 or 4 h, in the dose 100 mg/kg b.w.—in 3 mice, and in the dose 300 mg/kg b.w.—in 1 mouse.

[3] = tested on: pentylenetetrazol-induced seizures; assay: Subcutaneous Metrazol Test (ScMet), mice; conditions: dose 300 mg/kg b.w., 0.5 h
Description: In order to define anticonvulsant activity, screening tests were performed, using animal models of seizures. […] The tests were based on administration of a compound to an animal and after certain time inducing state similar to epilepsy attack in human. Each substance (after dissolving in methylcellulose) was normally tested in doses 30, 100, and 300 mg/kg body weight (b.w.) (mice) or in 30 and 50 mg/kg b.w. (rats) in two possible routes of administration: intraperitoneal (i.p.) or oral (p.o.). Appropriate tests were performed 0.5 and 4 h after administration of the compound. […] (mice) the tests were also performed in doses 10 and 3 mg/kg b.w.
Subcutaneous Metrazol Test (ScMet) is a chemical test, where compounds are tested for activity in absence seizures (petit mal epilepsy). Pentetrazol (metrazol) is considered to block chloride channel in the GABAA receptor complex, therefore at a certain dose in animals it causes myoclonic jerks, next—clonic seizures, and then tonic seizures. The procedure consists in administration of a tested compound and after 0.5 or 4 h subcutaneous administration of pentylenetetrazol in the dose of 85 mg/kg b.w. (mice) or 70 mg/kg b.w. (rats) in a 0.85% solution in 0.9% NaCl. […] Normally the test is performed in single animals.

[4] = mice, dose 300 mg/kg b.w., 0.5 h
[5] = mice, dose 100 mg/kg b.w., time 0.5 h
[6] = mice, dose 300 mg/kg b.w., time 0.5 h
[7] = dose 100 mg/kg b.w., time 0.5 h

Row | Compound | TOX, No. of animals exhibiting motor impairment/no. of used animals [1, 4] | MES, No. of protected animals/No. of used animals ([2]; dose 300 mg/kg b.w., 0.5 h) | MES, No. of protected animals/No. of used animals [2, 7] | other results
1 | CCC(O)CNC(=O)COc1c(C)cccc1C (centres unmarked) [Compound 63, R,S-1N-[(2,6-dimethylphenoxy)acetyl]amino-2-butanol] | 4/4 | 1/1 |  | 
2 | Cc1cccc(Cl)c1OCC(=O)NCC(C)O (centres unmarked) [Compound 68, R,S-1N-[(2-chlor-6-methylphenoxy)acetyl]amino-2-propanol] | 4/4 | 1/1 |  | ScMet, No. of protected animals/No. of used animals [3]: 1/1; ED50 (MES, mice, i.p.) ([2]; i.p., time not given): 97.93 mg/kg b.w.
3 | Cc1cccc(Cl)c1OCC(=O)NC(C)CO (centres unmarked) [Compound 69, R,S-2N-[(2-chlor-6-methylphenoxy)acetyl]amino-1-propanol] | 1/4 | 1/1 |  | TOX, No. of animals exhibiting motor impairment/no. of used animals ([1]; mice, dose 100 mg/kg b.w., 0.5 h): 1/8
4 | Cc1cccc(Cl)c1OCC(=O)N[C@H](C)CO [Compound 70, R-(−)-2N-[(2-chlor-6-methylphenoxy)acetyl]amino-1-propanol] | 3/4 | 1/1 |  | 
5 | Cc1cccc(Cl)c1OCC(=O)N[C@@H](C)CO [Compound 71, S-(+)-2N-[(2-chlor-6-methylphenoxy)acetyl]amino-1-propanol] | 4/4 | 1/1 |  | 
6 | CCC(O)CNC(=O)COc1c(C)cccc1Cl (centres unmarked) [Compound 72, R,S-1N-[(2-chlor-6-methylphenoxy)acetyl]amino-2-butanol] | 4/4 | 1/1 |  | ScMet, No. of protected animals/No. of used animals [3]: 1/1
7 | R,S-1N-[(2-chlor-6-methylphenoxy)ethyl]amino-2-propanol [Compound 23] |  |  | 1/1 | TOX, No. of animals exhibiting motor impairment/no. of used animals [1, 5]: 7/8; TOX, No. of animals exhibiting motor impairment/no. of used animals [1, 6]: 4/4; MES, No. of protected animals/No. of used animals ([2]; dose 30 mg/kg b.w., time 0.5 h): 1/1
8 | R,S-1N-[(4-chlor-2-methylphenoxy)ethyl]amino-2-propanol [Compound 32] |  |  | 3/3 | TOX, No. of animals exhibiting motor impairment/no. of used animals [1, 5]: 7/8; TOX, No. of animals exhibiting motor impairment/no. of used animals [1, 6]: 4/4; TOX, No. of animals exhibiting motor impairment/no. of used animals ([1]; mice, dose 300 mg/kg b.w., time 4 h): 1/1; MES, No. of protected animals/No. of used animals ([2]; dose 30 mg/kg b.w., time 0.5 h): 1/1; MES, No. of protected animals/No. of used animals ([2]; dose 100 mg/kg b.w., time 4 h): 1/3; MES, No. of protected animals/No. of used animals ([2]; dose 300 mg/kg b.w., time 0.5 h): 1/1
9 | R,S-2N-[(2,3-dimethylphenoxy)ethyl]amino-1-propanol [Compound 1] |  |  | 3/3 | TOX, No. of animals exhibiting motor impairment/no. of used animals ([1]; mouse, in vivo, 100 mg/kg): 7/8; TOX, No. of animals exhibiting motor impairment/no. of used animals ([1]; mouse, in vivo, 300 mg/kg): 4/4
10 | R,S-2N-[(4-chlor-2-methylphenoxy)ethyl]amino-1-propanol [Compound 33] |  |  | 3/3 | TOX, No. of animals exhibiting motor impairment/no. of used animals [1, 5]: 4/8; TOX, No. of animals exhibiting motor impairment/no. of used animals [1, 6]: 4/4
11 | R-(+)-2N-[(2,6-dimethylphenoxy)acetyl]amino-1-propanol [Compound 61] | 2/4 | 1/1 |  | 
